# Test results reported in patent US20170260183A1, “BICYCLIC COMPOUNDS AS PEST CONTROL AGENTS” (BAYER CROPSCIENCE AKTIENGESELLSCHAFT, priority 2014, published 2017).
# Like-named read-outs stand apart in the source and are kept apart here.
# Legend:
# [1] = logP determination by HPLC on reversed-phase columns (OECD Guideline 117); type: physicochemical; conditions: reversed-phase (C18) HPLC column
# Procedure: The logP values were determined in accordance with OECD Guideline 117 (EC Directive 92/69/EEC) by HPLC (high-performance liquid chromatography) using reversed-phase (RP) columns (C18), by the following methods: [a] The LC-MS determination in the acidic range is carried out at pH 2.7 with 0.1% aqueous formic acid and acetonitrile (contains 0.1% formic acid) as eluents; linear gradient from 10% acetonitrile to 95% acetonitrile. [b] LC-MS determination in the neutral range is effected at pH 7.8 with 0.001 molar aqueous ammonium hydrogencarbonate solution and acetonitrile as eluents; linear gradient from 10% acetonitrile to 95% acetonitrile. Calibration is effected using unbranched alkan-2-ones (having 3 to 16 carbon atoms) with known logP values (logP values determined on the basis of the retention times by linear interpolation between two successive alkanone s).
# [2] = test system: Aphis gossypii; assay: Aphis gossypii - spray test; type: in vivo; conditions: application rate 4 ppm; after 6 days; sprayed cotton plants; 100% = all aphids killed
# Procedure: Aphis gossypii—Spray Test • Solvent: 7 parts by weight of dimethylformamide • Emulsifier: alkylaryl polyglycol ether
# To produce a suitable active ingredient formulation, 1 part by weight of active ingredient is dissolved with the specified parts by weight of solvent and made up with water containing an emulsifier concentration of 1000 ppm until the desired concentration is attained. To produce further test concentrations, the formulation is diluted with emulsifier-containing water. If the addition of ammonium salts or/and penetrants is required, these are each added in a concentration of 1000 ppm to the formulation solution.
# Cotton plants (Gossypium hirsutum) heavily infested by the cotton aphid (Aphis gossypii) are sprayed with an active ingredient formulation of the desired concentration.
# After 6 days, the kill in % is determined. 100% means that all the aphids have been killed and 0% means that none of the aphids have been killed.
# [3] = test system: Myzus persicae; assay: Myzus persicae - spray test; type: in vivo; conditions: foliar, 144 h, application rate 500 g/ha, after 6 days, sprayed Chinese cabbage leaf discs, 100% = all aphids killed, read-out: efficacy in %
# Procedure: Myzus persicae—Spray Test • Solvent: 78 parts by weight of acetone • 1.5 parts by weight of dimethylformamide • Emulsifier: alkylaryl polyglycol ether […] To produce further test concentrations, the formulation is diluted with emulsifier-containing water. Discs of Chinese cabbage leaves (Brassica pekinensis) infested by all stages of the green peach aphid (Myzus persicae) are sprayed with an active ingredient formulation of the desired concentration. After 6 days, the efficacy in % is determined. 100% means that all the aphids have been killed and 0% means that none of the aphids have been killed.
# [4] = neutral range, pH 7.8, 0.001 molar aqueous ammonium hydrogencarbonate and acetonitrile, read-out: logP[b]
# [5] = acidic range, pH 2.7, 0.1% aqueous formic acid and acetonitrile, read-out: logP[a]
Structure (SMILES),"chromatographic logP [1, 4]",efficacy (kill in %) [2] [%],"chromatographic logP [1, 5]",pest or weed control at 500 g/ha [3] [%]
"CC(=O)Nc1cnc2nn(-c3cccnc3)cc2c1 [Example 1, 5-N-Acetylamino-2-(3-pyridyl)-pyrazolo[3,4-b]pyridine]",0.54,95,–,–
"Cc1cc(F)c(-c2cnc3nn(-c4cccnc4)cc3c2)cc1SCC(F)(F)F [Example 2, 5-[2-Fluoro-4-methyl-5-(2,2,2-trifluoroethylsulphanyl)phenyl]-2-(3-pyridyl)pyrazolo[3,4-b]pyridine]",3.22,–,3.44,90
"Cc1cc(F)c(-c2cnc3nn(-c4cccnc4)cc3c2)cc1[S+]([O-])CC(F)(F)F (centres unmarked) [Example 3, 5-[2-fluoro-4-methyl-5-(2,2,2-trifluoroethylsulphinyl)phenyl]-2-(3-pyridyl)pyrazolo [3,4-b]pyridine]",2.11,–,2.14,90
"Cc1ccc(-c2cnc3nn(-c4cccnc4)cc3c2)cc1SCC(F)(F)F [Example 4, 5-[4-methyl-3-(2,2,2-trifluoroethylsulphanyl)phenyl]-2-(3-pyridyl)pyrazolo[3,4-b]pyridine]",3.1,–,3.14,100
"Cc1ccc(-c2cnc3nn(-c4cccnc4)cc3c2)cc1[S+]([O-])CC(F)(F)F (centres unmarked) [Example 5, 5-[4-METHYL-3-(2,2,2-TRIFLUOROETHYLSULPHINYL)PHENYL]-2-(3-PYRIDYL)PYRAZOLO [3,4-B]PYRIDINE]",2.03,–,2.07,100
"CSCCC(=O)Nc1cnc2nn(-c3cccnc3)cc2c1 [Example 6, 3-methylsulphanyl-N-[2-(3-pyridyl)pyrazolo [3,4-b]pyridin-5-yl]propanamide]",1.21,–,1.15,100
"CC(F)(F)CC(=O)Nc1cnc2nn(-c3cccnc3)cc2c1 [Example 7, 3,3-DIFLUORO-N-[2-(3-PYRIDYL)PYRAZOLO[3,4-B]PYRIDIN-5-YL]BUTANAMIDE]",1.22,–,1.22,90
"Cn1cc(-c2cnc3nn(-c4cccnc4)cc3c2)cn1 [Example 8, 5-(1-methylpyrazol-4-yl)-2-(3-pyridyl)pyrazolo[3,4-b]pyridine]",1.15,–,1,90
"CSCCC(=O)N(C)c1cnc2nn(-c3cccnc3)cc2c1 [Example 10, N-[2-(3-pyridyl)pyrazolo[3,4-b]pyridin-5-yl]-N-methyl-3-methylsulphanylpropanamide]",1.2,–,1.16,90
